# Reference: US9302999B2, “Substituted triazoles as herbicides” (E. I. DU PONT DE NEMOURS AND COMPANY, priority 2012, dated 2016)
# Key:
# Format in all cases: in vivo
# Conditions in all cases: Preemergence, scale 0 to 100
# [1] = test system: soybean (Glycine max); test: Test E pre-/postemergence: soybean
# Source text: (§1) Seeds of plant species selected from corn (Zea mays), soybean (Glycine max), velvetleaf (Abutilon theophrasti), lambsquarters (Chenopodium album), poinsettia, wild (wild poinsettia, Euphorbia heterophylla), pigweed, palmer (palmer pigweed, Amaranthus palmeri), waterhemp (common waterhemp, Amaranthus rudis), smartweed (ladysthumb smartweed, Polygonum persicaria), surinam grass (Brachiaria decumbens), crabgrass, large (large crabgrass, Digitaria sanguinalis), crabgrass, Brazil (Brazilian crabgrass, Digitaria horizontalis), panicum, fall (fall panicum, Panicum dichotomiflorum), foxtail, giant (giant foxtail, Setaria faberii), foxtail, green (green foxtail, Setaria viridis), goosegrass (Eleusine indica), johnsongrass (Sorghum halepense), ragweed (common ragweed, Ambrosia elation), barnyardgrass (Echinochloa crus-galli), sandbur (southern sandbur, Cenchrus echinatus), arrowleaf sida (Sida rhombifolia), ryegrass, Italian (Italian ryegrass, Lolium multiflorum), dayflower, (VA) (Virginia dayflower, Commelina virginica), field bindweed (Convolvulus arvensis), cocklebur (common cocklebur, Xanthium strumarium), morningglory (Ipomoea coccinea), nightshade (eastern black nightshade, Solanum ptycanthum), kochia (Kochia scoparia), nutsedge, yellow (yellow nutsedge, Cyperus esculentus) and beggarticks (hairy beggarticks, Bidens pilosa) were planted into a silt loam soil and treated preemergence with test chemicals formulated in a non-phytotoxic solvent mixture which included a surfactant. At the same time, plants selected from these crop and weed species were planted in pots containing a growing medium comprising spaghnum peat moss, vermiculite, wetting agent and starter nutrients and treated with postemergence applications of some of the test chemicals formulated in the same manner. Plants ranged in height from 2 to 18 cm for postemergence treatments (1- to 4-leaf stage).
# (§2) Treated plants and controls were maintained in a greenhouse for 14 to 21 days, after which time all species were compared to controls and visually evaluated. Plant response ratings, summarized in Table E, are based on a scale of 0 to 100 where 0 is no effect and 100 is complete control. A dash (-) response means no test result.
# [2] = test system: velvetleaf (Abutilon theophrasti); test: Test E pre-/postemergence: velvetleaf
# Source text: as §1, §2
# [3] = test system: surinam grass (Brachiaria decumbens); test: Test E pre-/postemergence: surinam grass
# Source text: as §1, §2
# [4] = test system: crabgrass, large (large crabgrass, Digitaria sanguinalis); test: Test E pre-/postemergence: crabgrass, large
# Source text: as §1, §2
# [5] = test system: foxtail, green (green foxtail, Setaria viridis); test: Test E pre-/postemergence: foxtail, green
# Source text: as §1, §2
# [6] = test system: goosegrass (Eleusine indica); test: Test E pre-/postemergence: goosegrass
# Source text: as §1, §2
# [7] = test system: johnsongrass (Sorghum halepense); test: Test E pre-/postemergence: johnsongrass
# Source text: as §1, §2
# [8] = test system: ragweed (common ragweed, Ambrosia elation); test: Test E pre-/postemergence: ragweed
# Source text: as §1, §2
# [9] = test system: ryegrass, Italian (Italian ryegrass, Lolium multiflorum); test: Test E pre-/postemergence: ryegrass, Italian
# Source text: as §1, §2
# [10] = test system: field bindweed (Convolvulus arvensis); test: Test E pre-/postemergence: field bindweed
# Source text: as §1, §2
compound,measurement,setting,value
"FC(F)(F)COc1nn(-c2ccc(C(F)(F)F)cc2)nc1Cc1ccnc(C(F)(F)F)c1 [Compound 14, 4-[[5-(2,2,2-trifluoroethoxy)-2-[4-(trifluoromethyl)phenyl]-2H-1,2,3-triazol-4-yl]methyl]-2-(trifluoromethyl)pyridine]",Plant response rating: Soybean,[1]; 16 g ai/ha,0
same,Plant response rating: Soybean,[1]; 31 g ai/ha,10
same,Plant response rating: Soybean,[1]; 62 g ai/ha,25
same,Plant response rating: Soybean,[1]; 250 g ai/ha,35
same,Plant response rating: Velvetleaf,[2]; 16 g ai/ha,20
same,Plant response rating: Velvetleaf,[2]; 31 g ai/ha,35
same,Plant response rating: Velvetleaf,[2]; 62 g ai/ha,50
same,Plant response rating: Velvetleaf,[2]; 125 g ai/ha,80
same,Plant response rating: Velvetleaf,[2]; 250 g ai/ha,95
same,Plant response rating: Surinam Grass,[3]; 16 g ai/ha,5
same,Plant response rating: Surinam Grass,[3]; 31 g ai/ha,10
same,Plant response rating: Surinam Grass,[3]; 62 g ai/ha,25
same,Plant response rating: Surinam Grass,[3]; 125 g ai/ha,65
same,Plant response rating: Surinam Grass,[3]; 250 g ai/ha,100
same,"Plant response rating: Crabgrass, Large",[4]; 16 g ai/ha,65
same,"Plant response rating: Crabgrass, Large",[4]; 31 g ai/ha,75
same,"Plant response rating: Crabgrass, Large",[4]; 62 g ai/ha,95
same,"Plant response rating: Crabgrass, Large",[4]; 125 g ai/ha,100
same,"Plant response rating: Crabgrass, Large",[4]; 250 g ai/ha,100
same,"Plant response rating: Foxtail, Green",[5]; 16 g ai/ha,25
same,"Plant response rating: Foxtail, Green",[5]; 31 g ai/ha,35
same,"Plant response rating: Foxtail, Green",[5]; 62 g ai/ha,50
same,"Plant response rating: Foxtail, Green",[5]; 125 g ai/ha,70
same,"Plant response rating: Foxtail, Green",[5]; 250 g ai/ha,100
same,Plant response rating: Goosegrass,[6]; 16 g ai/ha,65
same,Plant response rating: Goosegrass,[6]; 31 g ai/ha,100
same,Plant response rating: Goosegrass,[6]; 62 g ai/ha,100
same,Plant response rating: Goosegrass,[6]; 125 g ai/ha,100
same,Plant response rating: Goosegrass,[6]; 250 g ai/ha,100
same,Plant response rating: Johnsongrass,[7]; 16 g ai/ha,10
same,Plant response rating: Johnsongrass,[7]; 31 g ai/ha,20
same,Plant response rating: Johnsongrass,[7]; 62 g ai/ha,70
same,Plant response rating: Johnsongrass,[7]; 125 g ai/ha,90
same,Plant response rating: Johnsongrass,[7]; 250 g ai/ha,95
same,Plant response rating: Ragweed,[8]; 16 g ai/ha,0
same,Plant response rating: Ragweed,[8]; 31 g ai/ha,20
same,Plant response rating: Ragweed,[8]; 62 g ai/ha,35
same,Plant response rating: Ragweed,[8]; 125 g ai/ha,80
same,Plant response rating: Ragweed,[8]; 250 g ai/ha,90
same,"Plant response rating: Ryegrass, Italian",[9]; 16 g ai/ha,0
same,"Plant response rating: Ryegrass, Italian",[9]; 31 g ai/ha,40
same,"Plant response rating: Ryegrass, Italian",[9]; 62 g ai/ha,85
same,"Plant response rating: Ryegrass, Italian",[9]; 125 g ai/ha,95
same,"Plant response rating: Ryegrass, Italian",[9]; 250 g ai/ha,100
same,Plant response rating: Field Bindweed,[10]; 16 g ai/ha,5
same,Plant response rating: Field Bindweed,[10]; 31 g ai/ha,20
same,Plant response rating: Field Bindweed,[10]; 62 g ai/ha,65
same,Plant response rating: Field Bindweed,[10]; 125 g ai/ha,65
same,Plant response rating: Field Bindweed,[10]; 250 g ai/ha,75
"COc1nn(-c2ccc(C(F)(F)F)cc2)nc1Cc1ccnc(C(F)(F)F)c1 [Compound 15, 4-[[5-methoxy-2-[4-(trifluoromethyl)phenyl]-2H-1,2,3-triazol-4-yl]methyl]-2-(trifluoromethyl)pyridine]",Plant response rating: Soybean,[1]; 16 g ai/ha,0
same,Plant response rating: Soybean,[1]; 31 g ai/ha,0
same,Plant response rating: Soybean,[1]; 62 g ai/ha,20
same,Plant response rating: Soybean,[1]; 125 g ai/ha,35
same,Plant response rating: Soybean,[1]; 250 g ai/ha,35
same,Plant response rating: Velvetleaf,[2]; 16 g ai/ha,20
same,Plant response rating: Velvetleaf,[2]; 31 g ai/ha,30
same,Plant response rating: Velvetleaf,[2]; 62 g ai/ha,65
same,Plant response rating: Velvetleaf,[2]; 125 g ai/ha,65
same,Plant response rating: Velvetleaf,[2]; 250 g ai/ha,95
same,Plant response rating: Surinam Grass,[3]; 16 g ai/ha,5
same,Plant response rating: Surinam Grass,[3]; 31 g ai/ha,50
same,Plant response rating: Surinam Grass,[3]; 62 g ai/ha,75
same,Plant response rating: Surinam Grass,[3]; 125 g ai/ha,98
same,Plant response rating: Surinam Grass,[3]; 250 g ai/ha,100
same,"Plant response rating: Crabgrass, Large",[4]; 16 g ai/ha,15
same,"Plant response rating: Crabgrass, Large",[4]; 31 g ai/ha,90
same,"Plant response rating: Crabgrass, Large",[4]; 62 g ai/ha,100
same,"Plant response rating: Crabgrass, Large",[4]; 125 g ai/ha,100
same,"Plant response rating: Crabgrass, Large",[4]; 250 g ai/ha,100
same,"Plant response rating: Foxtail, Green",[5]; 16 g ai/ha,20
same,"Plant response rating: Foxtail, Green",[5]; 62 g ai/ha,90
same,"Plant response rating: Foxtail, Green",[5]; 125 g ai/ha,100
same,"Plant response rating: Foxtail, Green",[5]; 250 g ai/ha,100
same,Plant response rating: Goosegrass,[6]; 16 g ai/ha,75
same,Plant response rating: Goosegrass,[6]; 31 g ai/ha,100
same,Plant response rating: Goosegrass,[6]; 62 g ai/ha,100
same,Plant response rating: Goosegrass,[6]; 125 g ai/ha,100
same,Plant response rating: Goosegrass,[6]; 250 g ai/ha,100
same,Plant response rating: Johnsongrass,[7]; 16 g ai/ha,10
same,Plant response rating: Johnsongrass,[7]; 31 g ai/ha,65
same,Plant response rating: Johnsongrass,[7]; 62 g ai/ha,65
same,Plant response rating: Johnsongrass,[7]; 125 g ai/ha,98
same,Plant response rating: Johnsongrass,[7]; 250 g ai/ha,100
same,Plant response rating: Ragweed,[8]; 16 g ai/ha,0
same,Plant response rating: Ragweed,[8]; 31 g ai/ha,5
same,Plant response rating: Ragweed,[8]; 125 g ai/ha,30
same,Plant response rating: Ragweed,[8]; 250 g ai/ha,60
same,"Plant response rating: Ryegrass, Italian",[9]; 16 g ai/ha,20
same,"Plant response rating: Ryegrass, Italian",[9]; 31 g ai/ha,75
same,"Plant response rating: Ryegrass, Italian",[9]; 62 g ai/ha,80
same,"Plant response rating: Ryegrass, Italian",[9]; 125 g ai/ha,100
same,"Plant response rating: Ryegrass, Italian",[9]; 250 g ai/ha,100
same,Plant response rating: Field Bindweed,[10]; 16 g ai/ha,5
same,Plant response rating: Field Bindweed,[10]; 31 g ai/ha,5
same,Plant response rating: Field Bindweed,[10]; 62 g ai/ha,40
same,Plant response rating: Field Bindweed,[10]; 125 g ai/ha,60
same,Plant response rating: Field Bindweed,[10]; 250 g ai/ha,95
Cc1nn(-c2ccc(C(F)(F)F)cn2)nc1Oc1ccnc(C(F)(F)F)c1 [Compound 23],Plant response rating: Soybean,[1]; 16 g ai/ha,0
same,Plant response rating: Soybean,[1]; 31 g ai/ha,0
same,Plant response rating: Soybean,[1]; 62 g ai/ha,0
same,Plant response rating: Soybean,[1]; 125 g ai/ha,0
same,Plant response rating: Soybean,[1]; 250 g ai/ha,20
same,Plant response rating: Velvetleaf,[2]; 16 g ai/ha,0
same,Plant response rating: Velvetleaf,[2]; 31 g ai/ha,0
same,Plant response rating: Velvetleaf,[2]; 62 g ai/ha,10
same,Plant response rating: Velvetleaf,[2]; 125 g ai/ha,65
same,Plant response rating: Velvetleaf,[2]; 250 g ai/ha,65
same,Plant response rating: Surinam Grass,[3]; 16 g ai/ha,0
same,Plant response rating: Surinam Grass,[3]; 31 g ai/ha,0
same,Plant response rating: Surinam Grass,[3]; 62 g ai/ha,10
same,Plant response rating: Surinam Grass,[3]; 125 g ai/ha,20
same,Plant response rating: Surinam Grass,[3]; 250 g ai/ha,20
same,"Plant response rating: Crabgrass, Large",[4]; 16 g ai/ha,5
same,"Plant response rating: Crabgrass, Large",[4]; 31 g ai/ha,5
same,"Plant response rating: Crabgrass, Large",[4]; 62 g ai/ha,35
same,"Plant response rating: Crabgrass, Large",[4]; 125 g ai/ha,70
same,"Plant response rating: Crabgrass, Large",[4]; 250 g ai/ha,100
same,"Plant response rating: Foxtail, Green",[5]; 16 g ai/ha,0
same,"Plant response rating: Foxtail, Green",[5]; 31 g ai/ha,0
same,"Plant response rating: Foxtail, Green",[5]; 62 g ai/ha,5
same,"Plant response rating: Foxtail, Green",[5]; 125 g ai/ha,70
same,"Plant response rating: Foxtail, Green",[5]; 250 g ai/ha,95
same,Plant response rating: Goosegrass,[6]; 16 g ai/ha,0
same,Plant response rating: Goosegrass,[6]; 62 g ai/ha,20
same,Plant response rating: Goosegrass,[6]; 125 g ai/ha,35
same,Plant response rating: Goosegrass,[6]; 250 g ai/ha,60
same,Plant response rating: Johnsongrass,[7]; 16 g ai/ha,0
same,Plant response rating: Johnsongrass,[7]; 31 g ai/ha,0
same,Plant response rating: Johnsongrass,[7]; 62 g ai/ha,0
same,Plant response rating: Johnsongrass,[7]; 125 g ai/ha,20
same,Plant response rating: Johnsongrass,[7]; 250 g ai/ha,60
same,Plant response rating: Ragweed,[8]; 16 g ai/ha,0
same,Plant response rating: Ragweed,[8]; 31 g ai/ha,0
same,Plant response rating: Ragweed,[8]; 62 g ai/ha,0
same,Plant response rating: Ragweed,[8]; 125 g ai/ha,0
same,Plant response rating: Ragweed,[8]; 250 g ai/ha,25
same,"Plant response rating: Ryegrass, Italian",[9]; 16 g ai/ha,0
same,"Plant response rating: Ryegrass, Italian",[9]; 31 g ai/ha,0
same,"Plant response rating: Ryegrass, Italian",[9]; 62 g ai/ha,0
same,"Plant response rating: Ryegrass, Italian",[9]; 125 g ai/ha,0
same,"Plant response rating: Ryegrass, Italian",[9]; 250 g ai/ha,10
same,Plant response rating: Field Bindweed,[10]; 16 g ai/ha,0
same,Plant response rating: Field Bindweed,[10]; 31 g ai/ha,0
same,Plant response rating: Field Bindweed,[10]; 62 g ai/ha,0
same,Plant response rating: Field Bindweed,[10]; 125 g ai/ha,0
same,Plant response rating: Field Bindweed,[10]; 250 g ai/ha,70
